We go through ten compounds from PMC10635799, “Analogs of FTY720 inhibit TRPM7 but not S1PRs and exert multimodal anti-inflammatory effects” (The Journal of General Physiology, 2023).

One data set has as its system TRPM7. To be noted: cited from earlier work; for pIC50: read-out: IC50 for TRPM7 inhibition.
A further data set concerns S1P receptors. Conditions: cited from earlier work; for Effect on S1PRs: non-phosphorylated form, ref Qin et al., 2013.
The target in a further data set is T1, mouse TRPM7 (Mus musculus, UniProt Q923J1).
T1 construct: expressed in transfected cells; host or cells: HEK 293T cells (CRL-3216; ATCC), transient transfection with jetOPTIMUS, co-transfected eGFP as a separate plasmid
Nature of the data set: Whole-cell patch clamp of TRPM7 current (IM7) in HEK 293T cells overexpressing mouse TRPM7. The format is cell-based. How it is done:
To overexpress TRPM7, HEK 293T cells were plated at a density of 500,000 cells per well (day 0), transfected at 80–90% confluency (day 1), and were patched 24–36 h after transfection (day 2). TRPM7 overexpression was performed using WT mouse TRPM7 (2.5 µg plasmid DNA; [Desai et al., 2012]) and jetOPTIMUS DNA Transfection Reagent (101000006; Polyplus). To enhance the selection rate of TRPM7-overexpressing cells, eGFP (#22152; Addgene) was included at a 1:10 dilution (0.25 µg) and only GFP-positive cells were patched.
Whole-cell patch clamp electrophysiology was performed as described previously ([Schappe et al., 2022]). Briefly, the external solution contained (in mM) 140 Na-methanesulfonate, 5 Cs-gluconate, 2.5 CaCl2, and 10 HEPES, pH 7.4 (adjusted with NaOH), at an osmolality of 280–290 mOsm/kg. The internal pipette solution contained (in mM) 115 Cs-gluconate, 3 NaCl, 0.75 CaCl2, 10 HEPES, 10 HEDTA, 1.8 Cs4-BAPTA, and 2 Na2ATP, pH 7.3 (adjusted with CsOH), at an osmolality of 273 mOsm/kg. Intracellular free [Ca^2+] was estimated to be ∼100 nM using the online WEBMAXC standard calculator at https://somapp.ucdmc.ucdavis.edu/pharmacology/bers/maxchelator/webmaxc/webmaxcS.htm ([Bers et al., 2010]). Recordings were captured in pCLAMP 9 (Molecular Devices) using a 400-ms ramp protocol from −100 to +100 mV and a holding potential of 0 mV. Sampling was performed at 10 kHz with a 5 kHz low-pass band filter using an Axopatch 200B amplifier (Molecular Devices). All electrophysiology experiments were conducted at RT (∼23°C). […] Similarly, the minimum current for each inhibitor dose is taken as the stable minimum current observed after the drug has had time to exert an effect and after the flow-driven transient increase has subsided.
Data were analyzed using Microsoft Excel, Prism 9.5 (GraphPad Software), and Origin Pro 7.5 (OriginLab). Chemical structures were created using ChemDraw Professional 20.1.1 (PerkinElmer). Electrophysiology traces were plotted using Origin Pro 7.5, and the remaining data were plotted and statistically tested using Prism. Outliers were determined using the robust regression and outlier removal (ROUT) function within Prism. IC50 values were determined by plotting the percentage of maximum current observed as a function of applied drug concentration. A non-linear regression was fit using a standard Hill slope of −1.0 and the model: Y=100/[1+([Inhibitor]/IC50)]. Where appropriate, data are presented as individual values; otherwise the sample sizes and precision measures are indicated in the figure legends. P values of <0.05 were considered statistically significant.

The test system of the next data set is BMDMs. As to the kind of experiment: LPS-induced inflammation assay in WT and TRPM7 KO BMDMs (qRT-PCR). Format: cell-based, mice. Conditions: 10 µM VPC4, 10 µM AAL-149, 5 µM FTY720, 30 μM NS8593. The protocol: All cells were cultured at 37°C with 5% CO2. HEK 293T cells (CRL-3216; ATCC), HeLa cells (CCL-2; ATCC), RAW 264.7 macrophages (TIB-71; ATCC), and BV-2 microglial cells (ABC-TC212S; AcceGen Biotech) were cultured in DMEM (11995065; Gibco) with 10% fetal bovine serum (FBS; Avantor Seradigm Premium Grade Fetal Bovine Serum 97068-085). FBS was heat-inactivated prior to use at 56°C for 30 min. BMDMs were isolated and cultured as previously described ([Schappe et al., 2018]) and differentiated into mature macrophages over 7 d through culture in BMDM media (RPMI 1640, 10% FBS, and 20% L-929 culture supernatant; Gibco).
(§1) RAW 264.7 macrophages or BMDMs were seeded at a density of 250,000 cells per well into a 12-well tissue culture plate in 1 ml of media and left to incubate overnight. The indicated drug or vehicle control was added to each well, and the plate was agitated and left to incubate for 10 min. The cells were then treated with LPS (1 µg/ml) or an equivalent volume of PBS, agitated, and left to incubate for 3 h. Cells were washed with PBS and then RNA isolation was performed using RNeasy Plus Micro Kit (74134; Qiagen). cDNA was produced using GoScript Reverse Transcriptase (A5004; Promega) and a quantitative PCR was performed using SensiFast SYBR (98020; Bioline) and Bio-Rad CFX Connect thermocycler. Each datum represents an individual, biological replicate that is the mean of duplicate technical replicates. Fold-changes are all reported relative to untreated controls for each experiment and were calculated using the ∆∆Ct method, with β2-microglobulin used as the housekeeping gene for each sample. The experiment was performed similarly with BV-2 microglia and alveolar macrophages, except that cells were plated at a density of 100,000 cells per well into a 24-well tissue culture plate with 1 ml of media per well.
Background: Quantitative PCR measures a nucleic acid by following its amplification.

In a further data set the test system is RAW 264.7 macrophages. Nature of the data set: LPS-induced inflammatory gene expression (qRT-PCR) in RAW 264.7 macrophages. Format: cell-based. Conditions: LPS 1 µg/ml for 3 h. The protocol:
as §1, with “μg/ml)” for “µg/ml)”, “([…];” for “(A5004;”, “ΔΔCt” for “∆∆Ct”

In another data set the test system is HeLa cells. Nature of the data set: LDH-release cytotoxicity assay. Format: cell-based. Conditions: 24 h. The protocol: WT HeLa cells were plated at a density of 10,000 cells per well into a 96-well tissue culture microplate (3610; Costar). AAL-149, VPC01091.4, or vehicle at 0.1, 1, 5, 10, and 25 μM was added to cells with media for a final volume of 100 μl and incubated for 24 h. LDH release was quantified using a CyQUANT LDH Cytotoxicity Assay (C20300; Thermo Fisher Scientific) and a FlexStation 3 plate reader using SoftMax […] (Molecular Devices).

Another data set deals with lymphocytes. Also on record: method as in Brinkmann et al., 2002; Zhu et al., 2007. Conditions: ref Brinkmann et al., 2002; Zhu et al., 2007; cited from earlier work.
Data set [1] relates to small-conductance Ca^2+-activated K^+ (SK) channels. Also on record: method as in Diness et al., 2010. Conditions: ref Diness et al., 2010; read-out: IC50 on SK-family channels; cited from earlier work.
[2] abbreviates: non-phosphorylated form, ref Qin et al., 2013.

Molecules are shown by their SMILES. pIC50: −log10 of the molar value. Entries after “also recorded” stand apart in the source; their conditions may differ. Like-named read-outs stand apart in the source and are kept apart here.

T1 sequence (Q923J1 whole entry): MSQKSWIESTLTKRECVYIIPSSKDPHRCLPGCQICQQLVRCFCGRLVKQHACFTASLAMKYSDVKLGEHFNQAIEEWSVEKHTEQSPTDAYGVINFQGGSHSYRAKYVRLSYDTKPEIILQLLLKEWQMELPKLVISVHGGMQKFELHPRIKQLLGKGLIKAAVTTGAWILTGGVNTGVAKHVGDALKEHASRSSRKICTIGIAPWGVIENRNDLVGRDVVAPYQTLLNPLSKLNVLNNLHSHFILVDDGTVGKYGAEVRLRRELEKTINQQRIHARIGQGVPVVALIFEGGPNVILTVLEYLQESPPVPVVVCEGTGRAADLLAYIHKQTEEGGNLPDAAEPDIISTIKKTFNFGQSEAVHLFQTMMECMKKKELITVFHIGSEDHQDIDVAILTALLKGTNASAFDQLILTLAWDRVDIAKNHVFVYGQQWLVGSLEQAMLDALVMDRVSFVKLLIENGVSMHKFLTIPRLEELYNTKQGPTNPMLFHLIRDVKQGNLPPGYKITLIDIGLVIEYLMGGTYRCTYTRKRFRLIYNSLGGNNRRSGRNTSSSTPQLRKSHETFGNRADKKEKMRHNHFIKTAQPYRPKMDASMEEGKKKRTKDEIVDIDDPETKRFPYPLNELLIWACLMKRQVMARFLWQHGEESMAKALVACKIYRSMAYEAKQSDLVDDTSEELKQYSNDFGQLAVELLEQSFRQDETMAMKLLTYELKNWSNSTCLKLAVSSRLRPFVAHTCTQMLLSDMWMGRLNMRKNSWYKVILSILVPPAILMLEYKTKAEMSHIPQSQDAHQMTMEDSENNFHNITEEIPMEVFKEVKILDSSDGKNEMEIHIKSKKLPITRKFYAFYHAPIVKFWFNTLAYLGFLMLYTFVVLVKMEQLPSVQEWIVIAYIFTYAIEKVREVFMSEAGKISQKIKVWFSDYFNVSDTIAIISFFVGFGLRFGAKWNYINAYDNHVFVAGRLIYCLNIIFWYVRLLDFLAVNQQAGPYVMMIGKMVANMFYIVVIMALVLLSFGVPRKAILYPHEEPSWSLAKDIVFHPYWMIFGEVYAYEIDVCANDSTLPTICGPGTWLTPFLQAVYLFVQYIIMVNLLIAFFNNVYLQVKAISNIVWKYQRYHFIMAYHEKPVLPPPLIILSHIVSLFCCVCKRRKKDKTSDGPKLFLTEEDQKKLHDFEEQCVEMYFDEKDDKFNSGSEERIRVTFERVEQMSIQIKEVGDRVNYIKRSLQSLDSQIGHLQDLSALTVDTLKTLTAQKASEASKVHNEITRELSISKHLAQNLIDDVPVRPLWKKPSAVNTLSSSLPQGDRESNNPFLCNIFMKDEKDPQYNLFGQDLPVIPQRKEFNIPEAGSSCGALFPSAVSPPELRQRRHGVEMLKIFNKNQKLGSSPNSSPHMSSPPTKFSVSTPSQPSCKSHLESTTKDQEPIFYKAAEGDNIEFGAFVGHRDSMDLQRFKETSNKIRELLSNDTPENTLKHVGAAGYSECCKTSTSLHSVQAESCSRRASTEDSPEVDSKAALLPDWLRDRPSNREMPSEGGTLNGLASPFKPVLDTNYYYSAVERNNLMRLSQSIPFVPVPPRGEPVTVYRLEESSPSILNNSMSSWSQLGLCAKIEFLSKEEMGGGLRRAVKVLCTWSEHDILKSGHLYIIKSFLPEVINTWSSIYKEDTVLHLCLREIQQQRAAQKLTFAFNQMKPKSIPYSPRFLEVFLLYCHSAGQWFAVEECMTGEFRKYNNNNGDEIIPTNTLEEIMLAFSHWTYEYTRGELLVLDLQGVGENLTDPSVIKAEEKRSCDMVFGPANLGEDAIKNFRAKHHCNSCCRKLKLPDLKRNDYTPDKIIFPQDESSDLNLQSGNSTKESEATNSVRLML

What is called pIC50 is the negative decadic logarithm of the IC50, by convention in mol/L. Regarding `CCCCCCCCCCCCC/C=C/[C@@H](O)[C@@H](N)CO` [sphingosine, D-erythro-sphingosine, reference compound], in the data set on TRPM7 (setting [2]), the pIC50 is 6.23. Also, the “Effect on S1PRs” value in the data set on S1P receptors was “no effect”.

Take `CCCCCCCCc1ccc(CCC(N)(CO)CO)cc1` [FTY720, fingolimod]: the “Effect on whole-cell TRPM7 current (IM7)” value on mouse TRPM7 (5 µM) is recorded as “inhibited; also recorded: able to inhibit”. For the same compound, the “LPS-induced IL-1β expression in TRPM7 KO BMDMs” value (“LPS-induced IL-1β expression” below) with BMDMs was “able to suppress”. Further, the pIC50 in the data set with TRPM7 (setting [2]) is 6.14. In addition, in the data set with S1P receptors, the “Effect on S1PRs” value is “no effect”.

For the compound `CCCCCCCCc1ccc([C@@H]2CC[C@](N)(CO)C2)cc1` [VPC01091.3, ((1R,3R)-1-amino-3-(4-octylphenyl)cyclopentyl)methanol], the “Effect on whole-cell TRPM7 current (IM7)” value at mouse TRPM7 (10 µM) is given as “inhibited”.

Turning to `CCCCCCCCc1ccc([C@H]2CC[C@@](N)(COP(=O)(O)O)C2)cc1` [VPC01091.2-P, ((1S,3S)-1-amino-3-(4-octylphenyl)cyclopentyl)methyl dihydrogen phosphate], the “Effect on whole-cell TRPM7 current (IM7)” value on mouse TRPM7 (10 µM) is recorded as “negligible effect; also recorded: no effect”. Further, the “LPS-stimulated IL-1β gene expression” value with RAW 264.7 macrophages (pretreatment, concentration not given) is “no significant inhibition”.

Regarding `CCCCCCCOc1ccc(CC[C@](C)(N)CO)cc1` [AAL-149, (2S)-2-amino-4-(4-heptoxyphenyl)-2-methylbutan-1-ol], the pIC50 against mouse TRPM7 is 5.97. In addition, the “Cytotoxicity (LDH release)” value with HeLa cells (dosages up to 10 µM) is on record as “did not result in any significant cytotoxicity”. Moreover, the “Mean cytotoxicity (LDH release)” value in the data set on HeLa cells (each dose up to 25 µM) is reported as less than 5%. Besides, the “LPS-stimulated IL-1β gene expression” value with RAW 264.7 macrophages (10 µM pretreatment) was “completely abrogated”. In addition, the “LPS-induced IL-1β expression” value in the data set with BMDMs is on record as “able to suppress”. Moreover, in the data set with S1P receptors (ref Brinkmann et al., 2002, Zhu et al., 2007), the “Activity at S1P receptors” value is “not active”. Besides, in the data set on lymphocytes, the “Lymphopenia when administered to mice” value is “do not evoke lymphopenia”.

Take `CCCCCCCCCCCCC/C=C/[C@H](O)[C@@H](N)CO` [L-threo-sphingosine, L-threo-(2S,3S)-sphingosine, reference compound]: the pIC50 at mouse TRPM7 (peak current at +100 mV, HEK 293T overexpressing mouse TRPM7, Hill slope -1.0, read-out: IC50 for inhibition of TRPM7 current (IM7)) was 5.47.

Turning to `CCCCCCCCc1ccc([C@H]2CC[C@](N)(CO)C2)cc1` [VPC01091.1, ((1R,3S)-1-amino-3-(4-octylphenyl)cyclopentyl)methanol], the “Effect on whole-cell TRPM7 current (IM7)” value at mouse TRPM7 (10 µM) is reported as “inhibited”.

Consider `CCCCCCCCCCCCC/C=C/[C@@H](O)[C@@H](N)COP(=O)(O)O` [S1P, sphingosine-1-phosphate], for which, in the data set on TRPM7 (ref Qin et al., 2013), the “Effect of phosphorylated forms on IM7” value was “do not inhibit”.

As to `c1ccc2c(c1)CCC[C@H]2Nc1nc2ccccc2[nH]1` [NS8593, (R)-N-(benzimidazol-2-yl)-1,2,3,4-tetrahydro-1-naphtylamine], in the data set on BMDMs, the “LPS-induced IL-1β expression” value was “able to suppress”. Besides, the pIC50 in the data set with TRPM7 (ref Chubanov et al., 2012) is 5.80; in data set [1], 6.14 to 6.38.

`C=C1CC/C=C(\C)CC[C@@H]2C([C@H](C/C=C(\C)COC(C)=O)OC(C)=O)=CO[C@H](OC(C)=O)[C@@H]12` [Waixenicin A]: the “Time to suppress ITRPM7” value in the data set with TRPM7 (10 μM, ref Zierler et al., 2011) was “up to 200 s”. Moreover, the pIC50 with TRPM7 (Mg^2+-free conditions, ref Zierler et al., 2011) is 5.15; with TRPM7 (recording conditions that limit the development of TRPM7 currents, ref Zierler et al., 2011), 7.80.
